Tested on: not given
Assay: not given
Conditions: intracerebroventricular to rats; cited from earlier work

Molecule | overnight food intake
t-butyl carbamate-prolyl prolinal [BPP] | suppression of overnight food intake

Target: human PrCP (Homo sapiens (Human), UniProt P42785)
Assay: Prolylcarboxypeptidase (PRCP) enzyme activity assay, fluorescence intensity kinetic assay
Format: biochemical
Conditions: recombinant human PrCP (CHO), 15 uM substrate, pH 5.5, 37° C.
Method: The potency of compounds of formula I against PrCP was determined by a fluorescence intensity kinetic assay measuring the IC50 values of PrCP inhibitor test compounds. […] The assay was run on a Perkin Elmer Envision 2103 plate reader using a 320 nm excitation filter and a 405 emission filter. The assay was performed using a Hamilton Star liquid handling workstation. The assay employed the internally quenched fluorescent substrate (1S)-1-carboxy-5-[(2,4-dinitrophenyl)amino]pentyl N-[(7-methoxy-2-oxo-2H-chromen-4-yl)acetyl]-L-alanyl-L-prolinate prepared in house.
The assay was run in a 384-well microliter plate at 37° C. with a total volume of 50 uL. Final assay concentrations were 0.13 nM human PrCP (CHO) or 0.09 nM mouse PrCP (CHO) enzyme, 15 uM substrate and varying concentrations of inhibitor in buffer containing 10 mM NaOAc, 100 mM NaCl and 19.5 ug/mL BSA at pH 5.5. The assay also contained 2% DMSO used to solubilize the substrate and inhibitor. Inhibitors were prepared in 100% DMSO and serial diluted (in 100% DMSO) to generate 11 point titration curves. Either 39 uL of human or mouse PrCP enzyme was added to the wells of the assay plate, followed by a 1 uL addition of the serially diluted inhibitor and mixed three times using a 30 uL mix volume. The reaction was initiated by the addition of 10 uL substrate and mixed three times using a 30 μL mix volume. The reactions were monitored continuously over 25 min at 37° C. to obtain initial velocities. IC50 values were calculated by comparing the resulting rates of reaction of the inhibited and control initial velocities.
The enzymes were diluted in a mixture of 10 mM NaOAc (pH 5.5)/100 mM NaCl buffer containing 25 ug/mL bovine serum albumin that had been warmed to 37° C. in a water bath. The PrCP inhibitor test compounds were plated in 100% DMSO with a highest concentration of 500 uM. There were 12 dilution points for each compound tested including a blank with DMSO only. The test compounds from the source titration plate were transferred into the assay reaction plate at a 1:50 dilution using the Hamilton Star workstation and mixed, resulting in a final concentration for the test compounds in the range of 10,000 to 0.066 nM. Likewise, two control compounds were similarly titrated and included in each assay, with final starting concentrations starting at 10,000 nM and 200 nM, respectively. The reaction was initiated by the addition of 75 uM of the (1S)-1-carboxy-5-[(2,4-dinitrophenyl)amino]pentyl N-[(7-methoxy-2-oxo-2H-chromen-4-yl)acetyl]-L-alanyl-L-prolinate substrate, which was diluted in a mixture of 10 mM NaOAc (pH 5.5)/100 mM NaCl that had been warmed to 37° C. in a water bath, dispensed using the Hamilton Star workstation and mixed. The substrate was solubilized in 100% DMSO prior to dilution into the assay. The final assay concentrations in the 50 uL reactions were 15 uM of (1S)-1-carboxy-5-[(2,4-dinitrophenyl)amino]pentyl N-[(7-methoxy-2-oxo-2H-chromen-4-yl)acetyl]-L-alanyl-L-prolinate substrate, 0.13 nM Human PrCP (CHO) or 0.09 nM Mouse PrCP (CHO), and 2% DMSO.
The resulting rates of reaction were used to determine the IC50 value for each PrCP inhibitor compound tested.

Sequence of human PrCP (P42785 46-496): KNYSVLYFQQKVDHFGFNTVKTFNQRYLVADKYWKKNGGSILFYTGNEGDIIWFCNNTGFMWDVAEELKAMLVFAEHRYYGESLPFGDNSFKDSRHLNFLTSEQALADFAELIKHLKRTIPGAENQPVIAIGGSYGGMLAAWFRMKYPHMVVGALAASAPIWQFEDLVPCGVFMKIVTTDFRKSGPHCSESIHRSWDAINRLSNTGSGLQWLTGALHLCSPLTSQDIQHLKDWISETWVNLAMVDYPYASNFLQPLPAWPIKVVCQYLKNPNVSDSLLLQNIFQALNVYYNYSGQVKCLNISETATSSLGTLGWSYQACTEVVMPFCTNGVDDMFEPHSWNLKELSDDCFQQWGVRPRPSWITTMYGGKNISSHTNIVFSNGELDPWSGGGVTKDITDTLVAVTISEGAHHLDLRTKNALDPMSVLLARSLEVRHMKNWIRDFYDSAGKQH

Molecule | IC50 [nM]
Clc1ccc(-c2cc(C3CCN(CCc4ccccc4)CC3)n(-c3ncccn3)n2)cc1 [Example 1, 2-{3-(4-Chlorophenyl)-5-[1-(2-phenylethyl)piperidin-4-yl]-1H-pyrazol-1-yl}pyrimidine] | 0.051
Clc1ccc(-c2cc(C3CCN(CCc4ccccc4)CC3)nn2-c2ccncn2)cc1 [Example 13, 4-{5-(4-chlorophenyl)-3-[1-(2-phenylethyl)piperidin-4-yl]-1 Hyl}pyrimidine] | 38.4
CCn1nc(-c2ccc(Cl)cc2)cc1C1CCN(CCc2ccccc2)CC1 [Example 26, 4-[3-(4-chlorophenyl)-1-ethyl-1 H-pyrazol-5-yl]-1-(2-phenylethyl)piperidine] | 31.8
COC(=O)C(CN1CCC(c2cc(-c3ccc(F)cc3)nn2-c2ncccn2)CC1)c1ccccc1 (centres unmarked) [Example 33, Methyl 3-{4-[3-(4-fluorophenyl)-1-(pyrimidin-2-yl)-1 H-pyrazol-5-yl]piperidin-1-pyrazol-5-yl]piperidin-1] | 0.035
O=C(O)C(CN1CCC(c2cc(-c3ccc(F)cc3)nn2-c2ncccn2)CC1)c1ccccc1 (centres unmarked) [Example 34, 3-{4-[3-(4-fluorophenyl)-1-(pyrimidin-2-yl)-1 H-pyrazol-5-yl]piperidin-1-yl}-2-phenylpropanoic acid] | 0.51
OC(CN1CCC(c2cc(-c3ccc(Cl)cc3)nn2-c2ncccn2)CC1)c1ccccc1 (centres unmarked) [Example 36, 2-{4-[3-(4-Chlorophenyl)-1-(pyrimidin-2-yl)-1H-pyrazol-5-yl]piperidin-1-yl}-1-phenylethanol] | 0.31
O=S(=O)(c1ccc(N2CCC(c3cc(-c4ccc(Cl)cc4)nn3-c3ncccn3)CC2)nc1)N1CCOCC1 [Example 48, 4-[(6-{4-[3-(4-chlorophenyl)-1-(pyrimidin-2-yl)-1 H-pyrazol-5-yl]piperidin-1-yl}pyridin-3-yl)sulfonyl]morpholine] | 80.2
CS(=O)(=O)N1CCC(N2CCC(c3cc(-c4ccc(Cl)cc4)nn3-c3ccccc3)CC2)C1 (centres unmarked) [Example 60, 4-[3-(4-chlorophenyl)-1-phenyl-1 H-pyrazol-5-yl]-1-[1-(methylsulfonyl)pyrrolidin-3-yl]piperidine] | 21.1
O=C(Cc1ccccc1C(F)(F)F)N1CCC(c2cc(-c3ccc(F)cc3)nn2-c2ncccn2)CC1 [Example 68, 1-{4-[3-(4-fluorophenyl)-1-(pyrimidin-2-yl)-1 H-pyrazol-5-yl]piperidin-1-yl}-2-[2-(trifluoromethyl)phenyl]ethanone] | 1.28
CO[C@@H](CN1CCC(c2nc(-c3ccc(F)cc3)nn2-c2ncccn2)CC1)c1ccccc1 [Example 81, 2-[3-(4-fluorophenyl)-5-{1-[(2 R)-2-methoxy-2-phenylethyl]piperidin-4-yl}-1 H-1,2,4-triazol-1-yl]pyrimidine] | 2.58
Fc1ccc(-c2nc(C3C4CN(CCc5ccccc5)CC43)n(-c3ncccn3)n2)cc1 (centres unmarked) [Example 82, 6-[3-(4-Fluorophenyl)-1-(pyrimidin-2-yl)-1H-1,2,4-triazol-5-yl]-3-(2-phenylethyl)-3-azabicyclo[3.1.0]hexane] | 28.6

Tested on: not given
Assay: not given
Conditions: limited weight loss of about; cited from earlier work

Molecule | weight loss, of body weight, drug compared to placebo
CCN[C@@H](C)Cc1cccc(C(F)(F)F)c1 [dexfenfluramine] | 5%-10%
CCCCCCCCCCC[C@@H](C[C@@H]1OC(=O)[C@H]1CCCCCC)OC(=O)[C@H](CC(C)C)NC=O [orlistat] | 5%-10%
CC(C)(N)Cc1ccccc1 [phentermine] | 5%-10%
CC(C)CC(N(C)C)C1(c2ccc(Cl)cc2)CCC1 (centres unmarked) [sibutramine] | 5%-10%

Tested on: not given
Assay: not given
Conditions: systemic administration to obese, leptin deficient mice; cited from earlier work

Molecule | overnight food intake
t-butyl carbamate-prolyl prolinal [BPP] | suppression of overnight food intake
